We go through 2 compounds from PMC5550493, “The Conserved Lysine-265 Allosterically Modulates Nucleotide- and Actin-binding Site Coupling in Myosin-2” (Scientific Reports, 2017).

Assay [1] has as its target T1, actomyosin (Dd myosin-2 M765-2R with F-actin) (Dictyostelium discoideum, UniProt P08799).
T1 construct: gene mhcA; M765-2R: mhcA 1-765 fused to Dd alpha-actinin repeats (codons 264-505), C-terminal Asp-Ala-Leu-(His)8 tag kept, expressed in D. discoideum AX3-Orf+; in complex with F-actin purified from rabbit skeletal muscle; with Actin, alpha skeletal muscle (Oryctolagus cuniculus)
The experiment in a line: stopped-flow light scattering, ADP inhibition of ATP-induced actomyosin dissociation. Format: binding. Particulars: read-out: Dd myosin-2 (M765-2R construct) / WT. From the text: stopped-flow light scattering, ADP inhibition of ATP-induced actomyosin dissociation on actomyosin (Dd myosin-2 M765-2R with F-actin)

The target of assay [2] is T1, actomyosin (Dd myosin-2 M765-2R with F-actin). The experiment in a line: NADH-coupled actin-activated ATPase assay. The settings on record: 20 µM F-actin, 1 mM ATP, 5% DMSO, 25 mM HEPES pH 7.3, 25 mM KCl, 5 mM MgCl2, 25 °C; allosteric. Format: biochemical.

T1 sequence (P08799 whole entry, looked up, the tested form may be a part): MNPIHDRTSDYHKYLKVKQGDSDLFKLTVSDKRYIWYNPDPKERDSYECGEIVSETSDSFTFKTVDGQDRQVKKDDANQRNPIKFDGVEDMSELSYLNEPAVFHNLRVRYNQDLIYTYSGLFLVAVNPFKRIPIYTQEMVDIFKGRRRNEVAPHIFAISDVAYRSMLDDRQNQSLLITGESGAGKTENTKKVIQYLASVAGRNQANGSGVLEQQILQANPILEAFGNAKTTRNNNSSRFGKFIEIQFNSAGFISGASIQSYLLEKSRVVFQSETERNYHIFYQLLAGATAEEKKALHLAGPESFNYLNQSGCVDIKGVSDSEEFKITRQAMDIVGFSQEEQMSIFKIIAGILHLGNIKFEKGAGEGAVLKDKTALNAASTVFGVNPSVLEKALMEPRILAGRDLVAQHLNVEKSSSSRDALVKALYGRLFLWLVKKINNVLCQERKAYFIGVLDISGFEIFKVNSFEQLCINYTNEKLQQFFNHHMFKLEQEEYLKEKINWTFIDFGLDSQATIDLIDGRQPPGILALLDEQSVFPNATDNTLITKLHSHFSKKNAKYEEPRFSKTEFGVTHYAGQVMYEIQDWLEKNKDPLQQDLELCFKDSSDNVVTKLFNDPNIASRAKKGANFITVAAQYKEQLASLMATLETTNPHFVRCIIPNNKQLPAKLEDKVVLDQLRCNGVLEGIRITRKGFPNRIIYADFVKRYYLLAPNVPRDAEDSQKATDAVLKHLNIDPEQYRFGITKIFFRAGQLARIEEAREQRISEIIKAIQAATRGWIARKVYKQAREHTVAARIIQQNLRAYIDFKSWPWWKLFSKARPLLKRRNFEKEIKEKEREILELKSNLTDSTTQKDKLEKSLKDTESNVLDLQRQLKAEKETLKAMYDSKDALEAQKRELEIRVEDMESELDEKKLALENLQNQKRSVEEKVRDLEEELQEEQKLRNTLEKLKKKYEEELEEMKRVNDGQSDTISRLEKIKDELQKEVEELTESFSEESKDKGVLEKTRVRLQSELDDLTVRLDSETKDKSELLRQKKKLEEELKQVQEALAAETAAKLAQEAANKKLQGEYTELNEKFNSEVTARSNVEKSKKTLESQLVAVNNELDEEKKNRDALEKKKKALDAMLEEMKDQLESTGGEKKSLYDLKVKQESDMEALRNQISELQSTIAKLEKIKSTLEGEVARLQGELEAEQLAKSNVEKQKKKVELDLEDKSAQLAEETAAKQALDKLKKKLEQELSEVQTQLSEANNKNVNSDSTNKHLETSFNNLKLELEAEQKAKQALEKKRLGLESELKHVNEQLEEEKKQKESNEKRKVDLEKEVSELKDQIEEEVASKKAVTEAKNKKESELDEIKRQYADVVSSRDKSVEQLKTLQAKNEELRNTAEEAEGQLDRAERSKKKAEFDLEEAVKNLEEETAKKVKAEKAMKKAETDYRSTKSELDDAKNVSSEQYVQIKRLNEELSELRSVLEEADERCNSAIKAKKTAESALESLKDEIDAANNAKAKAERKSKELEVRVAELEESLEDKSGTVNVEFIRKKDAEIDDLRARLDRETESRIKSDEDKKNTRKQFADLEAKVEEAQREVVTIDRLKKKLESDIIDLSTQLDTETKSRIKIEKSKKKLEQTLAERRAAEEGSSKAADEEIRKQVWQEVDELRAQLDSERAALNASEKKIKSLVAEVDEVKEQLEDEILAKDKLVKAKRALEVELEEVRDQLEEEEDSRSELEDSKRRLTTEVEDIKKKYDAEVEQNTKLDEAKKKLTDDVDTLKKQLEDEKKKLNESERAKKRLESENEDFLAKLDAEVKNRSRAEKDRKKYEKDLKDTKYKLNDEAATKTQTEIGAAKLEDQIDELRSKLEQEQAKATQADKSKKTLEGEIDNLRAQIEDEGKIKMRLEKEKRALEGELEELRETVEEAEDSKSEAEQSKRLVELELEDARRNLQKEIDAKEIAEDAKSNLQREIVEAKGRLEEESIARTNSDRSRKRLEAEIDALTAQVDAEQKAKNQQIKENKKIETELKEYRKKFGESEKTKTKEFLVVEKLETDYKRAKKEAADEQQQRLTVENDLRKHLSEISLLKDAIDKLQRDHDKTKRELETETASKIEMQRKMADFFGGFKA

`Nc1ncnc2c1ncn2[C@@H]1O[C@H](COP(=O)(O)OP(=O)(O)O)[C@@H](O)[C@H]1O` [ADP]: the Kd in assay [1] amounted to 73.3 ± 7 µM.

On to `Oc1c(Br)cc(Br)cc1-c1[nH]c(Br)c(Br)c1Br` [pentabromopseudilin], for which the “n-fold inhibition at 100 μM PBP” value in assay [2] was found to be 7 fold.
